Reference: patent publication US20230287316A1, “INTER-ORGAN PLATFORM WITH TISSUE-SPECIFIC NICHES FOR A MICROPHYSIOLOGICAL SYSTEM ON A CHIP” (THE TRUSTEES OF COLUMBIA UNIVERSITY IN THE CITY OF NEW YORK, priority 2020, published 2023)

Legend:
Format in all cases: cell-based, human
[1] = system: non-metastatic TE-ES bone tumor; experiment: Linsitinib on non-metastatic TE-ES in 1:1 mixed media; conditions: 12 µM regimen
Procedure: (§1) Cell viability was analyzed using a previously established protocol.^59 Cancer cell viability was measured for GFP-Luciferase labelled cancer cells using ONE-Glo luciferase substrate that was prepared according to manufacturer’s protocol (Promega). Samples were collected following 3, 7, and 21 days cycles of linsitinib treatment. Where noted, longitudinal cell viability was also assessed using luminescence, though at the cost of signal strength. Briefly, in vivo grade VivoGlo™ Luciferin (Promega) was made at a 200x stock concentration (30 mg/ml) in water, added to sample culture media at a 1:200 dilution, and scanned using a spectrophotometer (Biotek). Some of the IC50 values were determined using cell viability data generated using an MTT assay (RealTime-Glo™ MT Cell Viability Assay, Promega) that were analyzed according to manufacturer’s protocol.
Osteocalcin (OCN), osteopontin (OPN), and lactic acid dehydrogenase (LDH) secreted levels were all measured using a similar approach. Supernatants were isolated from controls and drug treated TE-ES and equal amounts were used in each assay according to the manufacturer’s instructions. For OCN a Human Osteocalcin Quantikine^R ELISA (R&D Systems) was used, while for OPN it was a Human Osteopontin Quantikine^R ELISA (R&D Systems). LDH secretion was determined using a Lactate Dehydrogenase Assay Kit (Colorimetric; Abcam).

[2] = system: tumors engineered from non-metastatic OS cells; experiment: Linsitinib in bioengineered tumors from non-metastatic OS cells; conditions: 12 µM, for 3 weeks
Procedure: (§2) We tested the drug Linsitinib—a potent tyrosine kinase inhibitor targeting the IGF-1 receptor (IGF-1R) —in metastatic and non-metastatic OS models (FIG. 17C). The drug was administered (12 µM, for 3 weeks), as per an ongoing Phase II Eurosarc trial in patients with advanced Ewing sarcoma.

[3] = system: tumors from metastatic cells; experiment: Linsitinib in bioengineered tumors from metastatic OS cells; conditions: 12 µM, for 3 weeks
Procedure: as §2

[4] = system: engineered cardiac tissues; experiment: Linsitinib on engineered cardiac tissues cultured in isolation; conditions: isolated
Procedure: (§3) FIGS. 32A-D show aspects of responses of human engineered bone ES tumors and cardiac tissues to linsitinib in isolated platform chambers. […] Luminescence as a function of cancer cell number and viability was measured (mean± s.e.m., n = 6 for day 3, and n = 3 for day 7 and 21).
Specifically, linsitinib was dissolved at a 10 mM concentration in DMSO (Corning) and mixed in with the respective cell medium at a […] concentration unless otherwise noted. Vehicle treatments involved just the addition of DMSO at identical volumes as a control. Tissues were randomly assigned to experimental groups. Medium was changed every day.
To measure the cardiac contractility online, we took contractility videos of the tissues that were analyzed using the native MATLAB code we previously developed. Tissue contractility was measured by tracking the change in tissue area as a function of time. Acquired video frames were inverted and an automated intensity threshold was used to identify cell location in the video frame. First, a baseline time point in the video corresponding to a relaxed tissue state was selected. Absolute differences in cell area from the baseline frame were then calculated to create a time course of cell area changes over time. The resulting time courses were analyzed using a native MATLAB (MATHWorks) automated peak finding algorithm to determine locations of maximum cell contractions in the time profiles. Beat period lengths were determined from the length of time between the pairs of local maxima, and the beat frequencies were determined by inverting beat periods. The rate of proarrhythmic events was calculated by the ratio of the number of proarrhythmic events over the total number of beats.

[5] = system: non-metastatic TE-ES (RD-ES) bone tumor; experiment: Linsitinib on non-metastatic engineered ES bone tumors (TE-ES) cultured in isolation
Text: FIGS. 31A-E show aspects of the evaluation of the dose-dependent effects of doxorubicin and linsitinib on engineered non-metastatic and metastatic ES bone tumors. […] An MTT viability assay was used to determine drug toxicity, with luminescence generated by viable cells measured at the endpoint (10^4 cells per well, mean± s.e.m., n = 3). […] Tumors are outlined by white dashes and validated using corresponding H&E stains of the identical loci. All scale bars: 250 µm.
as §3
The effects of linsitinib were studied in an experiment performed according to the 3-week treatment cycle used in the clinical trial (3 days of drug administration followed by 4 days without the drug, in 3 cycles), with luminescence signal serving as an indicator of cancer cell viability within the TE-ES.
Supernatants were collected from each individual sample across the duration of the drug treatments and were analyzed for osteoblast function (OCN, OPN) and for cytotoxicity (LDH) (mean± s.e.m., n = 3).
Two weeks following the initiation of osteogenic differentiation, aggregates of ES tumor cells were prepared as described previously, using 0.3 × 10^6 cells per aggregate. After 1 week of culture, corresponding to the end of bone tissue culture (3 weeks), the primary ES cell aggregates were placed into the engineered bone constructs (3 aggregates per construct, placed apart of each other). Tumor models were established for two different types of primary ES cells: non-metastatic (RD-ES) and metastatic (SK-N-MC). Tissue engineered RD-ES and SK-N-MC tumors were cultured in the RPMI and EMEM media, respectively, supplemented with 10% FBS and 1% penicillin/streptomycin. Bone constructs cultured without tumor cell aggregates (TE-bone) in RPMI and EMEM media were used as controls.
To assess apoptosis, paraffin embedded tissue sections were first deparaffinized with CitriSolv, rehydrated with graded series of ethanol washes, and then stained with a Click-iT® TUNEL Alexa Fluor® imaging assay (Thermo Fisher Scientific). Following nuclear counterstaining with DAPI (Life Technologies), the TUNEL labelled slides were imaged with an IX81 inverted fluorescent microscope (Olympus) and a Pike F032B camera (ALLIED Vision), using NIS-Elements AR software, and processed using ImageJ (NIH). Four representative images per condition were then analyzed using the previously developed automatic TUNEL cell counter plugin for ImageJ to quantify DAPI^+ cells and TUNEL^+ cells.
as §1, with “(Biotek).” for “(Biotek). Some of the IC50 values were determined using cell viability data generated using an MTT assay (RealTime-Glo™ MT Cell Viability Assay, Promega) that were analyzed according to manufacturer’s protocol.”

[6] = 12 µM, 3-week regimen, supernatants

## C[C@]1(O)C[C@@H](c2nc(-c3ccc4ccc(-c5ccccc5)nc4c3)c3c(N)nccn32)C1 [linsitinib]
[1]
  OCN secretion: increased only slightly
  cancer cell population level (luminescence): ~ 30 % of their starting population
[2]
  tumor viability: significant viability reduction
[3]
  tumor viability: no effect
[4]; 12 µM, after 3 days of exposure
  beating frequency: increased beating frequency
[4]; 12 µM
  rate of proarrhythmic events per beat: around 36%
[4]; after 12 µM linsitinib
  response to subsequent isoproterenol exposure: the inotropic response was not observed
[5]; 0, 1.2, 12, and 120 µM for 72 hours
  response to linsitinib concentration (luminescence viability): dose-dependent response
[5]; 12 µM
  apoptosis (TUNEL assay): increases in apoptosis
  cell viability (luminescence): significant reduction in cell viability
[5]; [6]
  LDH secretion (cytotoxicity): spiked in both models immediately following drug administration, but significantly more so
  Osteocalcin secretion: decreased
[5]; 12 µM, 21-day clinical treatment regimen
  cancer cell population (luminescence): initial decrease in cancer cell population in the non-metastatic model and this population appeared unable to continue expanding
[5]; 12 µM, after 3 days
  drug response (luminescence): significant drug response
[5]; 12 µM, throughout the 21 days
  osteopontin secretion: significantly increased
[5]; second 21-day 12 µM treatment regimen
  drug response of tumors derived from sorted linsitinib-resistant cells: significant initial drug response
